Data set [1] relates to monocotyledonous and dicotyledonous harmful plants (ABUTH, ALOMY, AMARE, DIGSA, ERICA, LOLPE, SOLNI, VIOAR). The data set can be described thus: Greenhouse trials, post emergence herbicidal activity (percent control). It is filed as in vivo. As to conditions: 5-20% w/v of applied substances, spray volume 500-1000 liters per hectare, broadcast foliar method. The text has this:
Standard post emergence herbicide application procedures were used, as described below, to apply inventive compounds and formulations listed in the tables 1 and 2, as well as the reference materials.
Seed of monocotyledonous and dicotyledonous harmful plants such as Abutilon theophrasti (ABUTH), Alopecurus myosuroides (ALOMY), Amaranthus retroflexus (AMARE), Digitaria Sanguinalis (DIGSA), Erigeron canadensis (ERICA), Lolium perenne (LOLPE), Solanun nigrum (SOLNI), Viola arvensis (VIOAR) were sowed in 18 cm^2 pots. The plants were placed in a greenhouse under controlled environmental conditions, and sub-irrigation. About one week after emergence, seedlings were thinned as needed, including removal of any unhealthy or abnormal plants, to create a uniform series of test pots.
The plants were maintained for the duration of the test in the greenhouse, where they received a mean of 70 μmol m^−2 s^−1 of light per day/night. Temperatures averages about 24° C. during the day and about 20° C. during the night. Plants were sub-irrigated throughout the test to ensure adequate soil moisture levels.
Pots were assigned to different treatment in a randomized experimental design. A set of pots was left untreated as a reference against which effects of the treatments could later be evaluated. Applications of tested formulations were made in a spray cabin model SPK B CT02 designed by CheckTec using the following parameters: • nozzle Lechler LU-120-08, 1000 L/ha, 3 bars, 0.56 m/s • nozzle Lechler LU-120-06, 500 L/ha, 3 bars, 0.7 m/s.
The distance of the nozzle from the plants was between 50 to 53 cms.
After treatment, pots were returned to the greenhouse until ready for evaluation (6 hours after treatment (6HAT), 1 day after treatment (1DAT), and 2 days after treatment (2DAT).
For evaluation of herbicidal effectiveness, all plants in the test were examined by a single technician, who recorded percent control, a visual measurement of the effectiveness of each treatment by comparison with untreated plants. […] The reported % control values represent the average for all replicates of each treatment.

Data set [2] in a line: Volatility from spray deposit on non-permeable leaf cuticles. It is filed as physicochemical. The conditions noted are these: pelargonic acid 30 g/L, Vorox 130 g/L. On the procedure: (§1) The volatility of the test substances from the spray deposit was measured time dependent. All measurements have been carried out using a concentration of 50 g/L of the test substances in the application solution. The reference pelargonic acid was used at a concentration of 30 g/L and the commercial benchmark Vorox was applied at a concentration of 130 g/L. The […] drop volumes of 10 μl of the spray liquids which amounts to 500 μg of test substance were then applied on two different substrates. An inert wettable synthetic substrates and non-permeable leaf cuticles were used as substrates. […] After evaporation of drop water, the substrates were weighed to obtain the initial weight and placed under a sealed box with defined air suction output volume of 30 m^3/h. The volatility has been determined after the desired measurement time of 4 h, 24 h and 48 h by weighing of the substrates to obtain the remaining weight of the test substances. The fraction of remaining test substance in % is obtained by the ratio of remaining test substance compared to the initial weight of test substance. The volatilized amount was calculated by subtraction of the remaining test substance of the initial applied amount. The volatilized fraction of test substance in % is obtained by the ratio of volatilized test substance compared to the initial weight of test substance. A substrate without test substance is used as reference to account for changes in environmental conditions such as humidity. Concentrations used are based on ca. 3% pelargonic acid equivalent

The nature of data set [3]: Volatility from spray deposit on inert wettable synthetic substrates. It is filed as physicochemical. The conditions noted are these: pelargonic acid 30 g/L, Vorox 130 g/L. On the procedure:
as §1

Data set [4] is described as follows: Spray liquids in water: appearance and stability after 24 h. It is filed as physicochemical. The conditions noted are these: for Appearance: spray liquid in water, after 24 h. The method, then:
The inventive compounds were used to make spray liquids at relevant use concentration. These spray liquids are produced by mixing the various test substances in water, and the appearance and stability of the spray liquid were assessed after 24 h.
The inventive compounds can be used as 100% substances without need for additional additives or formulation aids to obtain stable spray liquids. They are either water soluble and form clear homogeneous spray liquid or self-emulsifying in the spray liquid and form cloudy homogeneous emulsions that are stable over 24 h. […] Stable spray liquids can only be achieved with pelargonic acid when they are formulated with appropriate emulsifiers and other formulation aids like in the commercial benchmark Vorox.

[5] abbreviates: pH 4, 4 h, test substances 50 g/L.
Where [6] appears, read: pH 4, 24 h, test substances 50 g/L.
[7] abbreviates: pH 4, 48 h, test substances 50 g/L.

On to “C12/C14 fatty acid 3 EO ester methyl ether [A7]”, for which, in data set [1], the “herbicidal activity against a plurality of the harmful plants” value (“herbicidal activity against a plurality” below) is listed as “moderately effective to highly effective”.
Still for that read-out and setting: to `CCCCCCCCC(=O)OCCOCCOCCOCCOCCOCCOCC` [A16, Pelargonic acid 6 EO ester ethyl ether] belongs “moderately effective to highly effective”.
Same read-out and setting: in the case of “Dodec-9-enoic acid 3 EO ester methyl ether [A12]” it was “moderately effective to highly effective”; in that of “Dodecanoic acid 6 EO ester methyl ether [A14]”, “moderately effective to highly effective”.
In the case of `CCCCCCCCC(=O)OCCOCCOCCOCCOCCOCCOC(=O)CCCCCCCC` [A17, Pelargonic acid 6 EO diester, reference compound], the “Volatilized fraction 4 h” value in data set [2] (setting [5]) and in data set [3] (setting [5]) was 0.6% in each case. In addition, the “Volatilized fraction 24 h” value in data set [2] (setting [6]) is recorded as 1.5%; in data set [3] (setting [6]), 1.0%. For the same compound, the “Volatilized fraction 48 h” value was determined as 0.6% in data set [2] (setting [7]) and 1.3% in data set [3] (setting [7]).
For “C12/C14 fatty acid 5 EO ester methyl ether [A8]”, the “herbicidal activity against a plurality” value in data set [1] is “moderately effective to highly effective”.
Take `CCCCCCCCC(=O)OCCOCCOCCOCCOCCOCCOCCOCCOC` [A2, Pelargonic acid 8 EO ester methyl ether]: the Appearance entry in data set [4] (amount 0.3 % by wt.) and in data set [4] (amount 5.0 % by wt.) was “Clear solution” throughout. For the same compound, the “herbicidal activity against a plurality” value in data set [1] was “moderately effective to highly effective”. The results for the “Volatilized fraction 4 h” value in data set [2] (setting [5]) and in data set [3] (setting [5]) were 1.7% and −0.3%, respectively. Also, the results for the “Volatilized fraction 24 h” value in data set [2] (setting [6]) and in data set [3] (setting [6]) were 2.1% and 0.2%, respectively. Moreover, the “Volatilized fraction 48 h” value is 2.8% in data set [2] (setting [7]) and 0.4% in data set [3] (setting [7]).
Turning to `CCCCCCCCC(=O)OC(C)COCCOCCOC` (centres unmarked) [A4, Pelargonic acid 1 PO 2 EO ester methyl ether], in data set [1], the “herbicidal activity against a plurality” value is listed as “moderately effective to highly effective” and the “herbicidal activity against several, in particular three or more, of the mentioned harmful plants” value is given as “highly effective”.
For the compound “C8/C10 fatty acid 6 EO ester methyl ether [A6]”, the Appearance result in data set [4] (amount 5.0 % by wt.) is “Clear solution”. Also, the “herbicidal activity against a plurality” value in data set [1] is given as “moderately effective to highly effective”.
As to `CCCCCCCCC(=O)OCCOCCOCCOCCCCCC` [A10, Pelargonic acid 3 EO ester hexyl ether], the “herbicidal activity against a plurality” value in data set [1] was “moderately effective to highly effective”. The “Volatilized fraction 4 h” value is listed as 6.2% in data set [2] (setting [5]) and 0.9% in data set [3] (setting [5]). For the same compound, the “Volatilized fraction 24 h” value in data set [2] (setting [6]) turned out to be 14.7%; in data set [3] (setting [6]), 4.4%. Further, the figures for the “Volatilized fraction 48 h” value in data set [2] (setting [7]) and in data set [3] (setting [7]) were 18.9% and 7.2%, respectively.
As for `CCCCCCCCCCC(=O)OCCOCCOCCOCCOCCOCCOC` [A15, Undecanoic acid 6 EO ester methyl ether], the “herbicidal activity against a plurality” value in data set [1] is given as “moderately effective to highly effective”.
Regarding `CCCCCCCCCCOCCOCCOCCOCCOCCOC(=O)CCCCCCCC` [A9, Pelargonic acid 5 EO ester decyl ether], in data set [1], the “herbicidal activity against a plurality” value is on record as “moderately effective to highly effective”. The figures for the “Volatilized fraction 4 h” value in data set [2] (setting [5]) and in data set [3] (setting [5]) were 8.6% and 0.3%, respectively. Moreover, the “Volatilized fraction 24 h” value in data set [2] (setting [6]) is on record as 11.7%; in data set [3] (setting [6]), 1.2%. In addition, the “Volatilized fraction 48 h” value came out at 22.8% in data set [2] (setting [7]) and 1.9% in data set [3] (setting [7]).
In the case of `C=CCCCCCCCC(=O)OCCOCCOCCOCCOCCOCCOC` [A11, Dec-9-enoic acid 6 EO ester methyl ether], the “herbicidal activity against a plurality” value in data set [1] was “moderately effective to highly effective”.
For “C8/C10 fatty acid 4 EO ester methyl ether [A5]”, the “herbicidal activity against a plurality” value in data set [1] is on record as “moderately effective to highly effective”.
Same read-out and setting: in the case of `CC(CC(=O)O)CC(C)(C)C` (centres unmarked) [A13, 3,5,5-trimethylhexanoic acid] it was “moderately effective to highly effective”.
On to `CCCCCCCCC(=O)O` [Pelargonic acid, reference compound], for which, in data set [4] (100% substances in water without additional additives or formulation aids), the “stability of spray liquid” value is recorded as “phase separate immediately”. For the same compound, the Appearance in data set [4] (amount 0.3 % by wt.) and in data set [4] (amount 5.0 % by wt.) was 2 clear phases each time. Besides, the “herbicidal activity against a plurality” value in data set [1] is “moderately effective to highly effective”. In addition, the “Volatilized fraction 4 h” value in data set [2] (setting [5]) is 55.7%; in data set [2] (pH 7, 4 h), 29.2%; in data set [3] (setting [5]), 3.9%; in data set [3] (pH 7, 4 h), 7.3%. Further, the “Volatilized fraction 24 h” value in data set [2] (setting [6]) stood at 78.9%; in data set [2] (pH 7, 24 h), 33.8%; in data set [3] (setting [6]) it was 19.1%; in data set [3] (pH 7, 24 h), 21.3%. Besides, the “Volatilized fraction 48 h” value in data set [2] (setting [7]) is 80.6%; in data set [2] (pH 7, 48 h) it was 35.3%; in data set [3] (setting [7]) it was 35.2%; in data set [3] (pH 7, 48 h) it was 27.9%.
Regarding `CCCCCCCCC(=O)OCCOCCOCCOCCOC(C)COCCOCCOC` (centres unmarked) [A3, Pelargonic acid 1 PO 6 EO ester methyl ether], in data set [1], the “herbicidal activity against a plurality” value is reported as “moderately effective to highly effective”.
On to `CCCCCCCCC(=O)OCCOCCOCCOCCOCCOCCOCCOCCOC(=O)CCCCCCCC` [A18, Pelargonic acid 8 EO diester, reference compound], for which the “Volatilized fraction 4 h” value was determined as 0.6% in data set [2] (setting [5]) and 0.5% in data set [3] (setting [5]). In addition, the results for the “Volatilized fraction 24 h” value in data set [2] (setting [6]) and in data set [3] (setting [6]) were 1.7% and 0.7%, respectively. The “Volatilized fraction 48 h” value in data set [2] (setting [7]) was found to be 4.0%; in data set [3] (setting [7]), 0.9%.

Source of the values: patent US20200404909A1, “Fatty acid derivatives for use as herbicides” (Clariant International Ltd., priority 2018, published 2020).
